Tests used:
[1] = molecular target: T1, Neutrophil elastase (Homo sapiens, UniProt P08246); type: tissue-based;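 also: inhibition of neutrophil elastase enzyme activity, measured with a p-nitroanilide-linked peptide substrate; in other assays of this panel Not Active means under 50% inhibition at 10 µM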
T1 sequence (P08246 whole entry): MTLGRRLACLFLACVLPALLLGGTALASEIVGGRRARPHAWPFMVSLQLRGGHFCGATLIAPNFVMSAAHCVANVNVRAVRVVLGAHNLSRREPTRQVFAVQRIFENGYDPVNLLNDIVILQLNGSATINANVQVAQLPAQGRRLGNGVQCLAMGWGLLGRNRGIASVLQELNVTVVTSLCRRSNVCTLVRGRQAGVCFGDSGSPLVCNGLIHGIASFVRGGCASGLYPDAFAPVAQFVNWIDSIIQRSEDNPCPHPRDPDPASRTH

[2] = DRUGMATRIX: Imidazoline I2, Central radioligand binding (ligand: [3H] Idazoxan); type: cell membranes, Rattus norvegicus, Wistar, Cerebral cortex, Membrane; settings: Not Active = under 50% inhibition at 10 µM
[3] = DRUGMATRIX: Serotonin (5-Hydroxytryptamine) 5-HT3 radioligand binding (ligand: [3H] GR-65630); type: cell membranes, Membrane; settings: hek293; Not Active = under 50% inhibition at 10 µM
[4] = molecular target: D(3) dopamine receptor (Homo sapiens, UniProt P35462); experiment: DRUGMATRIX: Dopamine D3 radioligand binding (ligand: [3H] Spiperone); type: cell membranes, CHO, Membrane; settings: cho
Chain of D(3) dopamine receptor (P35462 whole entry): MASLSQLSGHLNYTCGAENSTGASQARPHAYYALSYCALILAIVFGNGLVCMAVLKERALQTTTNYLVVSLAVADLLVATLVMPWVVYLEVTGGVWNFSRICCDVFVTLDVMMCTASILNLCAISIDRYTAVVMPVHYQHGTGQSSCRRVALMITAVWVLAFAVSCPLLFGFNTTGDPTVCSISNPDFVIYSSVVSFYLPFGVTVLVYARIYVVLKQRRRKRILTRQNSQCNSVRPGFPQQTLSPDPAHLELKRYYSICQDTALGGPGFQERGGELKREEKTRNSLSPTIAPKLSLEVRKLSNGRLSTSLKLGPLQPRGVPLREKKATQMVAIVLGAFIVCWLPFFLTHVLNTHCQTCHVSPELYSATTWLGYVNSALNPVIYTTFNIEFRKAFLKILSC

[5] = DRUGMATRIX: Tumor Necrosis Factor (TNF), Non-Selective radioligand binding (ligand: [125I] TNF-alpha); type: cell membranes, Membrane; settings: u-937; Not Active = under 50% inhibition at 10 µM
[6] = molecular target: T2, Alpha-1B adrenergic receptor (Rattus norvegicus, UniProt P15823); experiment: DRUGMATRIX: Alpha-1B adrenergic receptor radioligand binding (ligand: prazosin); type: cell membranes, Wistar, Liver, Membrane; settings: Not Active = under 50% inhibition at 10 µM
T2 sequence (P15823 whole entry): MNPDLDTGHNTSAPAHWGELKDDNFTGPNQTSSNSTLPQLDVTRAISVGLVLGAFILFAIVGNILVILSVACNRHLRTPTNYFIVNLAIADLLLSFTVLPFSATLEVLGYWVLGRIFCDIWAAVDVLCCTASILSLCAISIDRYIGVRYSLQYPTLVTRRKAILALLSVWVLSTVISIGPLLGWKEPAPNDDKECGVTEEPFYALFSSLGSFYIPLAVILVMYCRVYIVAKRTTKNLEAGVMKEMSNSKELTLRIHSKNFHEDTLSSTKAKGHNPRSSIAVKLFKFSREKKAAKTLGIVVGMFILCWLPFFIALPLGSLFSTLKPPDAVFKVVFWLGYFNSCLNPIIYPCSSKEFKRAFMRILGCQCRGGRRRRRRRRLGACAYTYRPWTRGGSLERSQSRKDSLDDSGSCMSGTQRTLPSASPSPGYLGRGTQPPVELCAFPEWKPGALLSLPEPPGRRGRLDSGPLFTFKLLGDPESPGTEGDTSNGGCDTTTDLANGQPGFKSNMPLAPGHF

[7] = molecular target: T3, Neuropeptide Y receptor type 1 (Homo sapiens, UniProt P25929); type: cell membranes, Membrane; settings: sk-n-mc; also: in other assays of this panel Not Active means under 50% inhibition at 10 µM
T3 sequence (P25929 whole entry): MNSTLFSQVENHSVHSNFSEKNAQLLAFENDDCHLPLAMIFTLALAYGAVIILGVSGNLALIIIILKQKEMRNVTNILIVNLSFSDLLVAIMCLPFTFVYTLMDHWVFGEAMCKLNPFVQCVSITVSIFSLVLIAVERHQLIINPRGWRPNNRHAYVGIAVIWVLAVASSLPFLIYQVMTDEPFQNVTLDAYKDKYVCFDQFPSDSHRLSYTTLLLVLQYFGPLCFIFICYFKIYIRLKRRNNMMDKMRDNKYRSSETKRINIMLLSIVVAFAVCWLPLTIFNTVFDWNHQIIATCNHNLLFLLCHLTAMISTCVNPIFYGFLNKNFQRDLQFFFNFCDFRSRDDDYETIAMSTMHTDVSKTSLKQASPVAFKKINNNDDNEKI

[8] = molecular target: Epidermal growth factor receptor (Homo sapiens, UniProt P00533); experiment: DRUGMATRIX: Protein Tyrosine Kinase, EGF Receptor enzyme inhibition (substrate: Poly(Glu:Tyr)); type: cell-based, Insect cells; settings: Not Active = under 50% inhibition at 10 µM
Chain of Epidermal growth factor receptor (P00533 whole entry): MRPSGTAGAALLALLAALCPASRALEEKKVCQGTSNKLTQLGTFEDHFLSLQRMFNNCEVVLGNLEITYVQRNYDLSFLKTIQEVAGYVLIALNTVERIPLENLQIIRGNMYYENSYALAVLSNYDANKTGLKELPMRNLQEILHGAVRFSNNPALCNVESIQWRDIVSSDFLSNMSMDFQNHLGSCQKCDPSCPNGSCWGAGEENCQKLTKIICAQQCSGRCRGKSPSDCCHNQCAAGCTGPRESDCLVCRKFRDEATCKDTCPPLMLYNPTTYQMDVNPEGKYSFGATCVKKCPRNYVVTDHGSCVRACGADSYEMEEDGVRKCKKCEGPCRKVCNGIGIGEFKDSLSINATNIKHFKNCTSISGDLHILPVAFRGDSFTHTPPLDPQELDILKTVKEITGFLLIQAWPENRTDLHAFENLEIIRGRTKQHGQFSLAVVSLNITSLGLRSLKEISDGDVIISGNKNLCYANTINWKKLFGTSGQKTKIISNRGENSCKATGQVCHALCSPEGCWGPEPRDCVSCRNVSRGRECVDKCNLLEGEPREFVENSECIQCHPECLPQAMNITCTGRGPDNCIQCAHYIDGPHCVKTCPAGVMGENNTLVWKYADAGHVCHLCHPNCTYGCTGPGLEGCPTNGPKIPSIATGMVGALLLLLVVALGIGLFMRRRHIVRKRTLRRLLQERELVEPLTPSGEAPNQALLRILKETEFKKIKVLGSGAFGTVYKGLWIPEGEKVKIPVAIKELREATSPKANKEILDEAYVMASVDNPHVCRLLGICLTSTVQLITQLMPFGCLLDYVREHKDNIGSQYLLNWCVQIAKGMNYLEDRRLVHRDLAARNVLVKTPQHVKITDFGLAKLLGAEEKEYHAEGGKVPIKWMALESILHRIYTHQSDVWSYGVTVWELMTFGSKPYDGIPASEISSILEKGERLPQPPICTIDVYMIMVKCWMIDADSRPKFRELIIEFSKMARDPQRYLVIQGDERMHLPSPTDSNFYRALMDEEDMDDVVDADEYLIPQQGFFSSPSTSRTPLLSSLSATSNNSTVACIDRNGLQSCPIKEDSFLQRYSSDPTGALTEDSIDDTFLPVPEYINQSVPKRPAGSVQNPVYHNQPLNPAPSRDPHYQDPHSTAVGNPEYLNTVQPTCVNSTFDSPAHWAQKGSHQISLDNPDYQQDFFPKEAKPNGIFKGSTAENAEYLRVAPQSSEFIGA

[9] = molecular target: T4, Alpha-2C adrenergic receptor (Homo sapiens, UniProt P18825); experiment: DRUGMATRIX: Adrenergic Alpha-2C radioligand binding (ligand: [3H] MK-912); type: cell membranes, Sf9, Membrane; settings: sf9
T4 sequence (P18825 whole entry): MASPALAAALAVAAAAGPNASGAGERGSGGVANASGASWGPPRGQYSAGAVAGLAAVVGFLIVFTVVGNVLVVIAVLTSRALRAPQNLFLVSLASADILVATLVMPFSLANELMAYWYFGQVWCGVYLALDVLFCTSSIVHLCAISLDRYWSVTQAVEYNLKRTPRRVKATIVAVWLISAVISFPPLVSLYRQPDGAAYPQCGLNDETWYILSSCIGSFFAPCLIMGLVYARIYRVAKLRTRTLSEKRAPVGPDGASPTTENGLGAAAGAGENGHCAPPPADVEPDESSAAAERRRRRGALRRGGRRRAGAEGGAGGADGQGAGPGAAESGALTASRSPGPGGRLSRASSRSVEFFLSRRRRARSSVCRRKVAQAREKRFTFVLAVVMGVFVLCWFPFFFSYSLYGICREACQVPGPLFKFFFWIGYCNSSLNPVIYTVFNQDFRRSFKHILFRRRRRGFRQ

[10] = molecular target: T5, Interstitial collagenase (Homo sapiens, UniProt P03956); experiment: biochemical; type: tissue-based, Rheumatoid synovial fibroblasts;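 also: MMP-1 enzyme inhibition assay using a peptide substrate; in other assays of this panel Not Active means under 50% inhibition at 10 µM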
T5 sequence (P03956 whole entry): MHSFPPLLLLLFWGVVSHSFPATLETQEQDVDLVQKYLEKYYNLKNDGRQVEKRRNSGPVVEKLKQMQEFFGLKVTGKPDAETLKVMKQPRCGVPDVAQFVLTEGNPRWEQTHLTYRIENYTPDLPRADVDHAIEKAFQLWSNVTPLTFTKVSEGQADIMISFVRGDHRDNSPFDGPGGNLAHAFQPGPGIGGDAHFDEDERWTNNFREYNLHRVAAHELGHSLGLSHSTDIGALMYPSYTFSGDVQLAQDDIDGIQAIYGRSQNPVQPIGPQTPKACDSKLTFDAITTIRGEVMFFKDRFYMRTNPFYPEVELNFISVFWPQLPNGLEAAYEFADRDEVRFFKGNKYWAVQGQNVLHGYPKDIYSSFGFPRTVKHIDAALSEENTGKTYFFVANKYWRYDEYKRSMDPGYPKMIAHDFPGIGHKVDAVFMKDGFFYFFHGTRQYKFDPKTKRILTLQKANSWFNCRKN

## CC(=O)CC(c1ccccc1)c1c(O)c2ccccc2oc1=O (stereo unspecified) [WARFARIN]
[1]
  IC50: Not Active
[2]
  IC50: Not Active
  Ki: Not Active
[3]
  IC50: Not Active
  Ki: Not Active
[4]
  IC50: Not Active
[5]
  IC50: Not Active
  Ki: Not Active
[6]
  IC50: Not Active
[7]
  IC50: Not Active
[8]; insect cells
  IC50: Not Active
[9]
  IC50: Not Active
[10]
  IC50: Not Active

## [Cl-].[Cl-].[Zn+2] [ZINC CHLORIDE]
[1]
  IC50: Not Active
[2]
  IC50: Not Active
  Ki: Not Active
[3]
  IC50: Not Active
  Ki: Not Active
[4]
  IC50: Not Active
[5]
  IC50: Not Active
  Ki: Not Active
[6]
  IC50: Not Active
[7]
  IC50: Not Active
[8]; read-out: IC50
  IC50: 2.19 µM
[9]
  IC50: Not Active
[10]
  IC50: Not Active

Reference: ChEMBL document CHEMBL1909046, “DrugMatrix in vitro pharmacology data”
